The results in this text go back to article PMC6287766 (Molecular cancer therapeutics, 2017).

SMILES strings stand for the structures.

The subject of this test is murine brainstem glioma (mBSG) cells. Kind of test: Cell viability / proliferation IC50. It is filed as cell-based. The conditions noted are these: Mus musculus, read-out: IC50, cell viability.

Turning to `COc1cccc2c1C(=O)c1c(O)c3c(c(O)c1C2=O)C[C@@](O)(C(=O)CO)C[C@@H]3O[C@H]1C[C@H](N)[C@H](O)[C@H](C)O1` [doxorubicin], the IC50 (usually the concentration that inhibits the measured activity by half) turned out to be 710 ± 120 nM.
As to `Cc1nc(Nc2ncc(C(=O)Nc3c(C)cccc3Cl)s2)cc(N2CCN(CCO)CC2)n1` [dasatinib], the IC50 was found to be 19 ± 20 nM.
